Laboratory results taken from patent US7435822B2, “3-(diheteroarylmethylene)-8-azabicyclo[3.2.1]octane and 3-((aryl)(heteroaryl)methylene)-8-azabicyclo[3.2.1]octane derivatives” (Janssen Pharmaceutica N.V., priority 2004, dated 2008).
Where two headings read alike, the source gives them in different places.

What was measured:
[1] = target: T1, δ-opioid receptor (Rattus norvegicus, UniProt P33533); assay: Rat brain δ-opioid receptor binding assay; details: for μ/δ (ratio of the μ-opioid receptor binding to the δ-opioid receptor binding): ratio of Ki μ to Ki δ, rat brain
T1 construct: the forebrains are homogenized in Tris buffer in a Teflon®-glass homogenizer; from tissue; host or cells: rat (male Wistar) forebrain, particulate membrane preparation
Experimental: Rat Brain δ-Opioid Receptor Binding Assay
Male, Wistar rats (150-250 g, VAF, Charles River, Kingston, N.Y.) are killed by cervical dislocation, and their brains removed and placed immediately in ice cold Tris HCl buffer (50 mM, pH 7.4). The forebrains are separated from the remainder of the brain by a coronal transection, beginning dorsally at the colliculi and passing ventrally through the midbrain-pontine junction. After dissection, the forebrains are homogenized in Tris buffer in a Teflon®-glass homogenizer. The homogenate is diluted to a concentration of 1 g of forebrain tissue per 100 mL Tris buffer and centrifuged at 39,000×G for 10 min. The pellet is resuspended in the same volume of Tris buffer with several brief pulses from a Polytron homogenizer. This particulate preparation is used for the δ-opioid binding assays. […] The tubes and filters are rinsed three times with 4 mL of 10 mM HEPES (pH 7.4), and the radioactivity associated with the filter circles determined using Formula 989 scintillation fluid (New England Nuclear, Boston, Mass.) in a scintillation counter.
(§1) The data are used to calculate either the % inhibition compared to control binding (when only a single concentration of test compound is evaluated) or a Ki value (when a range of concentrations is tested).
% Inhibition was calculated as follows: […]
Ki value is calculated using the LIGAND (Munson, P. J. and Rodbard, D., Anal. Biochem. 107: 220-239,1980) data analysis program.

[2] = target: T2, μ-opioid receptor (Rattus norvegicus, UniProt P33535); assay: Rat brain μ-opioid receptor binding assay
T2 construct: the forebrains are homogenized in Tris buffer in a Teflon®-glass homogenizer; from tissue; host or cells: rat (male Wistar) forebrain, particulate membrane preparation
Experimental: Rat Brain μ-Opioid Receptor Binding Assay
Male, Wistar rats (150-250 g, VAF, Charles River, Kingston, N.Y.) are killed by cervical dislocation and their brains removed and placed immediately in ice cold Tris HCl buffer (50 mM, pH 7.4). The forebrains are separated from the remainder of the brain by a coronal transection, beginning dorsally at the colliculi and passing ventrally through the midbrain-pontine junction. After dissection, the forebrains are homogenized in Tris buffer in a Teflon®-glass homogenizer. The homogenate is diluted to a concentration of 1 g of forebrain tissue per 100 mL Tris buffer and centrifuged at 39,000×G for 10 min. The pellet is resuspended in the same volume of Tris buffer with several brief pulses from a Polytron homogenizer. This particulate preparation is used for the μ-opioid binding assays.
as §1
% Inhibition is calculated as follows: […]

[3] = rat forebrain particulate preparation, [3H]DAMGO, 25° C., read-out: Ki (nM) μ
[4] = rat forebrain particulate preparation, [3H]DPDPE, 25° C., read-out: Ki (nM) δ

T2 sequence (P33535 whole entry): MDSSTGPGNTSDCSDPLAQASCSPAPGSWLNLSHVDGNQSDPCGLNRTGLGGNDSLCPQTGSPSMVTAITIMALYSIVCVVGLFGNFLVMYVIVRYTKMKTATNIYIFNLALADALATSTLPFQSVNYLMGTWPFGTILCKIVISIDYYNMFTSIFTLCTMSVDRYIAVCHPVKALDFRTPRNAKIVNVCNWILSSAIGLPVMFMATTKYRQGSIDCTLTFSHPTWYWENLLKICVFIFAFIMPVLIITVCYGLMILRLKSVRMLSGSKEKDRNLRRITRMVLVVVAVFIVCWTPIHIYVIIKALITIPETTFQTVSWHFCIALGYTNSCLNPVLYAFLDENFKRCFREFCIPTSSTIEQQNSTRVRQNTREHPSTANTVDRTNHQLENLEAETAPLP
T1 sequence (P33533 whole entry): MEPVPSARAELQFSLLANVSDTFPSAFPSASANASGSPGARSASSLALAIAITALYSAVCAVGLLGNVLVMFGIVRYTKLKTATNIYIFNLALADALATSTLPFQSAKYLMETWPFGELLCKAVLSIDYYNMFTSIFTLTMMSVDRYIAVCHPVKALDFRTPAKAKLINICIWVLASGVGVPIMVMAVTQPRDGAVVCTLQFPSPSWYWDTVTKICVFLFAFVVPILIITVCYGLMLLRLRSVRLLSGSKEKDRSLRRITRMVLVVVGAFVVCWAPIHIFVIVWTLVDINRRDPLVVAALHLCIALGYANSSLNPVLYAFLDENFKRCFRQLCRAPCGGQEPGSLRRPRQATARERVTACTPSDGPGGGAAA

| Compound | Ki [1] | μ/δ (ratio of the μ-opioid receptor binding to the δ-opioid receptor binding) [1] | Ki [2, 3] | Ki [2] | Ki [1, 4] |
| --- | --- | --- | --- | --- | --- |
| CC(C)=CCN1C2CCC1CC(=C(c1ccccc1)c1ccsc1)C2 [Example 3, 8-(3-Methyl-but-2-enyl)-3-(phenyl-thiophen-3-yl-methylene)-8-aza-bicyclo[3.2.1]octane] | 21.1 nM | 8.37 | 177 nM |  |  |
| CC(C)=CCN1C2CCC1CC(=C(c1ccsc1)c1cccc(O)c1)C2 [Example 21, 3-{[8-(3-Methyl-but-2-enyl)-8-aza-bicyclo[3.2.1]oct-3-ylidene]-thiophen-3-yl-methyl}-phenol] | 0.91 nM | 7.8 |  | 7.1 nM |  |
| Cc1ccc(CN2C3CCC2CC(=C(c2ccsc2)c2cccc(O)c2)C3)s1 [Example 28, 3-{[8-(5-Methyl-thiophen-2-ylmethyl)-8-aza-bicyclo[3.2.1]oct-3-ylidene]-thiophen-3-yl-methyl}-phenol] | 1.65 nM | 7.65 |  | 12.6 nM |  |
| Cc1ccc(CN2C3CCC2CC(=C(c2ccccc2)c2ccsc2)C3)s1 [Example 9, 8-(5-Methyl-thiophen-2-ylmethyl)-3-(phenyl-thiophen-3-yl-methylene)-8-aza-bicyclo[3.2.1]octane] | 38.8 nM | 10.66 | 413 nM |  |  |
| Cc1ccsc1CN1C2CCC1CC(=C(c1ccccc1)c1ccsc1)C2 [Example 8, 8-(3-Methyl-thiophen-2-ylmethyl)-3-(phenyl-thiophen-3-yl-methylene)-8-aza-bicyclo[3.2.1]octane] | 38.3 nM |  |  |  |  |
| Cc1ccc(CN2C3CCC2CC(=C(c2ccc(O)cc2)c2ccsc2)C3)s1 [Example 44, 4-{[8-(5-Methyl-thiophen-2-ylmethyl)-8-aza-bicyclo[3.2.1]oct-3-ylidene]-thiophen-3-yl-methyl}-phenol] | 9.04 nM | 8.33 |  | 75.2 nM |  |
| Oc1ccc(C(=C2CC3CCC(C2)N3CCc2ccccc2)c2ccsc2)cc1 [Example 39] | 397 nM | 0.42 |  | 166 nM |  |
| Oc1cccc(C(=C2CC3CCC(C2)N3Cc2ccccc2Cl)c2ccsc2)c1 [Example 25, 3-{[8-(2-Chloro-benzyl)-8-aza-bicyclo[3.2.1]oct-3-ylidene]-thiophen-3-yl-methyl}-phenol] | 1.69 nM | 20.22 |  | 34.2 nM |  |
| Cc1ccsc1CN1C2CCC1CC(=C(c1ccsc1)c1cccc(O)c1)C2 [Example 27, 3-{[8-(3-Methyl-thiophen-2-ylmethyl)-8-aza-bicyclo[3.2.1]oct-3-ylidene]-thiophen-3-yl-methyl}-phenol] | 5.85 nM | 5.20 |  | 30.4 nM |  |
| c1ccc(C(=C2CC3CCC(C2)N3Cc2cccs2)c2ccsc2)cc1 [Example 7, 3-(Phenyl-thiophen-3-yl-methylene)-8-thiophen-2-ylmethyl-8-aza-bicyclo[3.2.1]octane] | 62.6 nM | 6.69 | 418 nM |  |  |
| Cc1ccccc1CN1C2CCC1CC(=C(c1ccsc1)c1cccc(O)c1)C2 [Example 24] | 5.96 nM | 8.15 |  | 48.6 nM |  |
| Cc1ccccc1CN1C2CCC1CC(=C(c1ccc(O)cc1)c1ccsc1)C2 [Example 40, 4-{[8-(2-Methyl-benzyl)-8-aza-bicyclo[3.2.1]oct-3-ylidene]-thiophen-3-yl-methyl}-phenol] | 35.7 nM | 1.82 |  | 64.8 nM |  |
| CC(C)=CCN1C2CCC1CC(=C(c1ccc(O)cc1)c1ccsc1)C2 [Example 38, 4-{[8-(3-Methyl-but-2-enyl)-8-aza-bicyclo[3.2.1]oct-3-ylidene]-thiophen-3-yl-methyl}-phenol] | 5.37 nM | 17.3 |  | 93 nM |  |
| C=CCN1C2CCC1CC(=C(c1ccsc1)c1cccc(O)c1)C2 [Example 22, 3-[(8-Allyl-8-aza-bicyclo[3.2.1]oct-3-ylidene)-thiophen-3-yl-methyl]-phenol] | 1.69 nM | 15.6 |  | 26 nM |  |
| Oc1ccc(C(=C2CC3CCC(C2)N3Cc2cccs2)c2ccsc2)cc1 [Example 42, 4-[Thiophen-3-yl-(8-thiophen-2-ylmethyl-8-aza-bicyclo[3.2.1]oct-3-ylidene) -methyl]phenol] | 2.92 nM | 30.54 |  | 89.2 nM |  |
| Oc1cccc(C(=C2CC3CCC(C2)N3CCc2ccccc2)c2ccsc2)c1 [Example 23, 3-[(8-Phenethyl-8-aza-bicyclo[3.2.1]oct-3-ylidene)-thiophen-3-yl-methyl]-phenol] |  |  |  | 37 nM | 437 nM |
| c1ccc(CCN2C3CCC2CC(=C(c2ccccc2)c2ccsc2)C3)cc1 [Example 4, 8-Phenethyl-3-(phenyl-thiophen-3-yl-methylene)-8-aza-bicyclo[3.2.1]octane] |  | 0.29 | 265 nM |  | 903 nM |
| Clc1ccccc1CN1C2CCC1CC(=C(c1ccccc1)c1ccsc1)C2 [Example 6, 8-(2-Chloro-benzyl)-3-(phenyl-thiophen-3-yl-methylene)-8-aza-bicyclo[3.2.1]octane] |  |  | 1310 nM |  | 229 nM |
| Cc1ccccc1CN1C2CCC1CC(=C(c1ccccc1)c1ccsc1)C2 [Example 5, 8-(2-Methyl-benzyl)-3-(phenyl-thiophen-3-yl-methylene)-8-aza-bicyclo[3.2.1]octane] |  | 21.28 | 4110 nM |  | 193 nM |
| Oc1cccc(C(=C2CC3CCC(C2)N3Cc2cccs2)c2ccsc2)c1 [Example 26, 3-[Thiophen-3-yl-(8-thiophen-2-ylmethyl-8-aza-bicyclo[3.2.1]oct-3-ylidene)-methyl]-phenol] | 0.17 nM | 31.78 |  | 5.4 nM |  |
| Cc1ccsc1CN1C2CCC1CC(=C(c1ccc(O)cc1)c1ccsc1)C2 [Example 43, 4-{[8-(3-Methyl-thiophen-2-ylmethyl)-8-aza-bicyclo[3.2.1]oct-3-ylidene]-thiophen-3-yl-methyl}-phenol] | 31.4 nM | 5.94 | 187 nM |  |  |
| Oc1cccc(C(=C2CC3CCC(C2)N3)c2ccsc2)c1 [Example 20, 3-[(8-Aza-bicyclo[3.2.1]oct-3-ylidene)-thiophen-3-yl-methyl]-phenol] | 6.27 nM | 3.93 |  | 24.7 nM |  |
| Oc1ccc(C(=C2CC3CCC(C2)N3Cc2ccccc2Cl)c2ccsc2)cc1 [Example 41, 4-{[8-(2-Chloro-benzyl)-8-aza-bicyclo[3.2.1]oct-3-ylidene]-thiophen-3-yl-methyl}phenol] | 12.5 nM | 2.91 |  | 36.5 nM |  |
| c1ccc(C(=C2CC3CCC(C2)N3)c2ccsc2)cc1 [Example 2, 3-(Phenyl-thiophen-3-yl-methylene)-8-aza-bicyclo[3.2.1]octane] | 68 nM |  |  |  |  |
